Assay results from publication PMC2788677 (Journal of medicinal chemistry, 2009).

Columns and labels:
MOR [1] = assay: Radioligand binding assay, CHO cells stably expressing MOR, [3H]DAMGO; conditions: relative to dermorphin
MOR [2] = conditions: cited from earlier work

Dermorphin
Rel. MOR affinity (MOR [1]): 1.0 | higher affinity than morphine for MOR (MOR [2]): 100 fold
